≈ marks a conversion by molar mass, not a printed value.
What was measured:
Assay type in all cases: functional
[1] = tested on: Pseudomonas aeruginosa; assay: Antibacterial activity against carbapenem-resistant Pseudomonas aeruginosa isolate 1D5 SA1 harboring acquired beta-lactamase VIM-2 by broth microdilution method
[2] = tested on: Pseudomonas aeruginosa; assay: Antibacterial activity against Pseudomonas aeruginosa assessed as percent nonsusceptible isolates by broth microdilution assay
[3] = tested on: Pseudomonas aeruginosa; assay: Antibacterial activity against Pseudomonas aeruginosa PAO1 harboring acquired beta-lactamase OXA-144 by broth microdilution method
[4] = tested on: Pseudomonas aeruginosa; assay: Antibacterial activity against carbapenem-resistant Pseudomonas aeruginosa isolate 1C2 PTOL1 harboring beta-lactamase OXA-17 by broth microdilution method
[5] = tested on: Pseudomonas aeruginosa; assay: Antibacterial activity against carbapenem-resistant Pseudomonas aeruginosa isolate 3C8 GM1 harboring acquired beta-lactamase OXA-144 by broth microdilution method
[6] = tested on: Pseudomonas aeruginosa; assay: Antibacterial activity against carbapenem-resistant Pseudomonas aeruginosa isolate 3C9 GM1 harboring acquired beta-lactamase OXA-144 by broth microdilution method
[7] = tested on: Pseudomonas aeruginosa; assay: Antibacterial activity against Pseudomonas aeruginosa PAO1 harboring acquired beta-lactamase OXA-2 by broth microdilution method
[8] = tested on: Pseudomonas aeruginosa; assay: Antibacterial activity against carbapenem-resistant Pseudomonas aeruginosa isolate 1E2 PpA1 harboring acquired beta-lactamase OXA-144 by broth microdilution method
[9] = tested on: Pseudomonas aeruginosa; assay: Antibacterial activity against carbapenem-resistant Pseudomonas aeruginosa isolate 3D2 GM2 harboring acquired beta-lactamase BEL-3 by broth microdilution method
[10] = tested on: Pseudomonas aeruginosa; assay: Antibacterial activity against carbapenem-resistant Pseudomonas aeruginosa isolate 3C1 VAL6 by broth microdilution method
[11] = tested on: Pseudomonas aeruginosa; assay: Antibacterial activity against carbapenem-resistant Pseudomonas aeruginosa isolate 1C3 PTOL1 harboring acquired beta-lactamase OXA-17 by broth microdilution method
[12] = tested on: Pseudomonas aeruginosa; assay: Antibacterial activity against carbapenem-resistant Pseudomonas aeruginosa isolate 1E1 PpA1 harboring acquired beta-lactamase OXA-144 by broth microdilution method
[13] = tested on: Pseudomonas aeruginosa; assay: Antibacterial activity against Pseudomonas aeruginosa PAO1 by broth microdilution method
[14] = tested on: Pseudomonas aeruginosa; assay: Antibacterial activity against carbapenem-resistant Pseudomonas aeruginosa isolate 1E3 PpA2 harboring acquired beta-lactamase OXA-101 by broth microdilution method
[15] = tested on: Pseudomonas aeruginosa; assay: Antibacterial activity against carbapenem-resistant Pseudomonas aeruginosa isolate 1B2 RCA2 harboring acquired beta-lactamase PER-1 by broth microdilution method

| SMILES | MIC [1] | Activity [2] | MIC [3] | MIC [4] | MIC [5] | MIC [6] | MIC [7] | MIC [8] | MIC [9] | MIC [10] | MIC [11] | MIC [12] | MIC [13] | MIC [14] | MIC [15] |
| --- | --- | --- | --- | --- | --- | --- | --- | --- | --- | --- | --- | --- | --- | --- | --- |
| CO/N=C(\C(=O)N[C@@H]1C(=O)N2C(C(=O)[O-])=C(C[N+]3(C)CCCC3)CS[C@H]12)c1csc(N)n1 | 16 µg/mL (≈ 33.3 µM) | 68.2% | 8 µg/mL (≈ 16.6 µM) | > 64 µg/mL | 4 µg/mL (≈ 8.32 µM) | 4 µg/mL (≈ 8.32 µM) | 2 µg/mL (≈ 4.16 µM) | 32 µg/mL (≈ 66.6 µM) | 32 µg/mL (≈ 66.6 µM) | 64 µg/mL (≈ 133 µM) | > 64 µg/mL | 16 µg/mL (≈ 33.3 µM) | 1 µg/mL (≈ 2.08 µM) | > 64 µg/mL |  |
| NCC[C@H](O)C(=O)N[C@@H]1C[C@H](N)[C@@H](O[C@H]2O[C@H](CN)[C@@H](O)[C@H](O)[C@H]2O)[C@H](O)[C@H]1O[C@H]1O[C@H](CO)[C@@H](O)[C@H](N)[C@H]1O [AMIKACIN] | 16 µg/mL (≈ 27.3 µM) | 18.6% |  | 32 µg/mL (≈ 54.6 µM) | 4 µg/mL (≈ 6.83 µM) | 4 µg/mL (≈ 6.83 µM) |  | 32 µg/mL (≈ 54.6 µM) | 8 µg/mL (≈ 13.7 µM) | 2 µg/mL (≈ 3.42 µM) | 32 µg/mL (≈ 54.6 µM) | 16 µg/mL (≈ 27.3 µM) |  | 32 µg/mL (≈ 54.6 µM) | 1 µg/mL (≈ 1.71 µM) |
| C[C@@H](O)[C@H]1C(=O)N2C(C(=O)O)=C(SCCNC=N)C[C@H]12 [IMIPENEM ANHYDROUS] | > 64 µg/mL | 33.9% | 1 µg/mL (≈ 3.34 µM) | > 64 µg/mL | > 64 µg/mL | > 64 µg/mL | 1 µg/mL (≈ 3.34 µM) | > 64 µg/mL | 64 µg/mL (≈ 214 µM) | > 64 µg/mL | > 64 µg/mL | > 64 µg/mL | 1 µg/mL (≈ 3.34 µM) | 16 µg/mL (≈ 53.4 µM) | 64 µg/mL (≈ 214 µM) |
| CCN1CCN(C(=O)N[C@@H](C(=O)N[C@@H]2C(=O)N3[C@@H]2SC(C)(C)[C@@H]3C(=O)O)c2ccccc2)C(=O)C1=O [PIPERACILLIN] |  | 28.4% | 16 µg/mL (≈ 30.9 µM) |  |  |  | 32 µg/mL (≈ 61.8 µM) |  |  |  |  |  | 4 µg/mL (≈ 7.73 µM) |  |  |
| NC[C@H]1O[C@H](O[C@H]2[C@H](O)[C@@H](O[C@H]3O[C@H](CO)[C@@H](O)[C@H](N)[C@H]3O)[C@H](N)C[C@@H]2N)[C@H](N)C[C@@H]1O [TOBRAMYCIN] | 64 µg/mL (≈ 137 µM) | 33.9% |  | 32 µg/mL (≈ 68.4 µM) | 16 µg/mL (≈ 34.2 µM) | 16 µg/mL (≈ 34.2 µM) |  | 64 µg/mL (≈ 137 µM) | 8 µg/mL (≈ 17.1 µM) | < 0.12 µg/mL | 64 µg/mL (≈ 137 µM) | 64 µg/mL (≈ 137 µM) |  | > 64 µg/mL | < 0.12 µg/mL |

From ChEMBL document CHEMBL1240358, “Activity of a new antipseudomonal cephalosporin, CXA-101 (FR264205), against carbapenem-resistant and multidrug-resistant Pseudomonas aeruginosa clinical strains” (2010)
